Source: patent US10668043B2, “Potentiated antimicrobial agents” (priority 2014, dated 2020)
Values after ≈ are worked out from the molar mass of the structure shown.

Columns and labels:
[1] = test system: Strain 10168/MRSA; assay: Resistance: occurrence of resistant mutants; format: cell-based, S. aureus; settings: 4 times the MIC; 48 h incubation; DMSO
Experimental: (§1) After 48 h incubation, the presence or absence of colonies likely to be resistant mutants is observed.

[2] = test system: Pasteurella; assay: etest on agar containing the booster; format: cell-based
Excerpt: The corresponding tests are made based on the usual MIC test: the etest® (Biomerieux) strip is deposited onto the surface of a seeded agar medium in which the booster has been incorporated.
The control corresponds to the test made without cineol. A control is made in each solvent tested: distilled water, Tween/water and DMSO. • ED control=antibiotic alone in distilled water • DMSO control=antibiotic alone in DMSO • TE control=antibiotic alone in Tween® 80
Other e-tests are also made on Pasteurella.

[3] = test system: Strain 9003/BLSE; assay: Resistance: occurrence of resistant mutants; format: cell-based; settings: 4 times the MIC; 48 h incubation; DMSO
Experimental: as §1

Question: Which results are given for `O=C(O)c1cn(C2CC2)c2cc(N3CCNCC3)c(F)cc2c1=O` [Ciprofloxacin, ciprofloxacin]?
Answer: colonies likely to be resistant mutants [1]: invaded; MIC (e-test) ([2]; strain 14012, 5 mg cineol DMSO): 4 ng/mL (≈ 0.0121 µM); MIC (e-test) ([2]; strain 14012, 5 mg cineol TE): 4 ng/mL (≈ 0.0121 µM); MIC (e-test) ([2]; strain 14012, 5 mg cineol water): 3 ng/mL (≈ 0.00905 µM); MIC (e-test) ([2]; strain 14012, 10 mg cineol DMSO): 4 ng/mL (≈ 0.0121 µM); MIC (e-test) ([2]; strain 14012, 10 mg cineol TE): 6 ng/mL (≈ 0.0181 µM); MIC (e-test) ([2]; strain 14012, 10 mg cineol water): 4 ng/mL (≈ 0.0121 µM); MIC (e-test) ([2]; strain 14012, DMSO control): 6 ng/mL (≈ 0.0181 µM); MIC (e-test) ([2]; strain 14012, ED control): 4 ng/mL (≈ 0.0121 µM); MIC (e-test) ([2]; strain 14012, TE control): 6 ng/mL (≈ 0.0181 µM); MIC (e-test) ([2]; strain 14013, 5 mg cineol DMSO): 12 ng/mL (≈ 0.0362 µM); MIC (e-test) ([2]; strain 14013, 5 mg cineol TE): 12 ng/mL (≈ 0.0362 µM); MIC (e-test) ([2]; strain 14013, 5 mg cineol water): 12 ng/mL (≈ 0.0362 µM); MIC (e-test) ([2]; strain 14013, 10 mg cineol DMSO): 12 ng/mL (≈ 0.0362 µM); MIC (e-test) ([2]; strain 14013, 10 mg cineol TE): 12 ng/mL (≈ 0.0362 µM); MIC (e-test) ([2]; strain 14013, 10 mg cineol water): 16 ng/mL (≈ 0.0483 µM); MIC (e-test) ([2]; strain 14013, DMSO control): 12 ng/mL (≈ 0.0362 µM); MIC (e-test) ([2]; strain 14013, ED control): 12 ng/mL (≈ 0.0362 µM); MIC (e-test) ([2]; strain 14013, TE control): 16 ng/mL (≈ 0.0483 µM); colonies likely to be resistant mutants [3]: Numerous
